What was measured:
Format in all cases: biochemical
human CSF1-R (FMS) = target: T1, human CSF1-R (FMS) (Homo sapiens, UniProt P07333); test: Alphascreen tyrosine kinase enzyme assay, CSF-1R (FMS) kinase domain; details: read-out: FMS, FLT3, or HCK IC50_nM (FMS)
T1 construct: from codon I553 to Q961; GST (N); made in house; host or cells: Sf9 insect cells (baculovirus)
T1 sequence (P07333 553-961): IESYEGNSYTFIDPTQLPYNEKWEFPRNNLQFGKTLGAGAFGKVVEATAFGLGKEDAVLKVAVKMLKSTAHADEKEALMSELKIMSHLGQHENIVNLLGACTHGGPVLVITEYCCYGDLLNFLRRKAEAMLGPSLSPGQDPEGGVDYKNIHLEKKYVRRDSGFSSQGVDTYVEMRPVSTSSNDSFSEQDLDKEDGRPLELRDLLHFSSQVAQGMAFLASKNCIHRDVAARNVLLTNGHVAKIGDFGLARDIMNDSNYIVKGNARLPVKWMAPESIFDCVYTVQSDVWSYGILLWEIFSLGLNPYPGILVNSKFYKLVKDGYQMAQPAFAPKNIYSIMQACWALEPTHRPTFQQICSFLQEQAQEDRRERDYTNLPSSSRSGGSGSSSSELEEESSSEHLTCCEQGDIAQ
Experimental: For screening purposes, compounds (in 100% DMSO) were warmed at 37 degrees for at least 20 minutes before use. A […] stock was initially made in assay buffer, where the final concentration of DMSO was 0.3%. The stocks were then diluted in 384 well Optiplates (Packard) where the final concentration of the compound was […].
The kinase domain of human CSF1-R from codon I553 to Q961 was cloned into the pDest20 expression vector (Invitrogen). The CSF1-R plasmid was then transformed into competent DH10Bac cells (Gibco), and the recombinant baculovirus produced prepared for transfection into Sf9 insect cells.
Baculovirus preparations from each of the constructs were infected into either one or five liters of Sf9 cells (Invitrogen) grown in SF-900 medium (Invitrogen) to a cell density of approximately 1-2×10^6 cells/ml. Cells were infected with virus at a MOI of 0.8-3.0. Cells were harvested and lysed. Tyrosine kinase domains were purified by affinity chromatography on a glutathione-agarose column (Scientifix Pty. Ltd. catalog #: GSH-200).
Kinase assays were performed in 384 well Optiplates (Packard) using an Alphascreen Protein Tyrosine Kinase PY100 detection kit The compounds were pre-incubated with affinity purified PTK domain in the presence of phosphotyrosine assay buffer (10 mM HEPES, pH 7.5, 100 mM MgCl2, 25 mM NaCl, […] and 0.1% Tween 20) for 20 minutes. The compounds were then incubated with substrate in the presence of ATP. The substrate used was susbtrate-1 with the sequence biotin-EGPWLEEEEEAYGWMDF-NH2 [SEQ. ID. NO. 13] (final concentration […]). For HCK 80 μm ATP was used and incubated for 60 minutes. Alphascreen phosphotyrosine acceptor beads followed by streptavidin donor beads at a concentration of 1/100 in stop buffer were added to each well under subdued light and incubated for 2-3 hours., The Alphascreen plates were read on a Packard Fusion Alpha instrument.

BTK(h) = target: T2, BTK(h) (Homo sapiens, UniProt Q06187); test: Upstate KinaseProfiler enzyme assay, BTK; details: 500 nM compound; read-out: Percent inhibition at 500 nM BTK(h)
T2 construct: purchased Upstate Biotechnology (Dundee, UK), KinaseProfiler service
How it was run: (§1)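 Substrates are dissolved and diluted to working stocks in de-ionised water. Enzymes go into the assay from 10× working dilutions prepared in pH 7.0 MOPS buffer (20 mM) containing BSA 1 mg/ml, glycerol 5%, Brij-35 0.01%, β-mercaptoethanol 0.1% and EDTA 1 mM.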

Bmx(h) = target: T3, Bmx(h) (Homo sapiens, UniProt P51813); test: Upstate KinaseProfiler enzyme assay, Bmx; details: 500 nM compound; read-out: Percent inhibition at 500 nM Bmx(h)
T3 construct: purchased Upstate Biotechnology (Dundee, UK), KinaseProfiler service
T3 sequence (P51813 1-675): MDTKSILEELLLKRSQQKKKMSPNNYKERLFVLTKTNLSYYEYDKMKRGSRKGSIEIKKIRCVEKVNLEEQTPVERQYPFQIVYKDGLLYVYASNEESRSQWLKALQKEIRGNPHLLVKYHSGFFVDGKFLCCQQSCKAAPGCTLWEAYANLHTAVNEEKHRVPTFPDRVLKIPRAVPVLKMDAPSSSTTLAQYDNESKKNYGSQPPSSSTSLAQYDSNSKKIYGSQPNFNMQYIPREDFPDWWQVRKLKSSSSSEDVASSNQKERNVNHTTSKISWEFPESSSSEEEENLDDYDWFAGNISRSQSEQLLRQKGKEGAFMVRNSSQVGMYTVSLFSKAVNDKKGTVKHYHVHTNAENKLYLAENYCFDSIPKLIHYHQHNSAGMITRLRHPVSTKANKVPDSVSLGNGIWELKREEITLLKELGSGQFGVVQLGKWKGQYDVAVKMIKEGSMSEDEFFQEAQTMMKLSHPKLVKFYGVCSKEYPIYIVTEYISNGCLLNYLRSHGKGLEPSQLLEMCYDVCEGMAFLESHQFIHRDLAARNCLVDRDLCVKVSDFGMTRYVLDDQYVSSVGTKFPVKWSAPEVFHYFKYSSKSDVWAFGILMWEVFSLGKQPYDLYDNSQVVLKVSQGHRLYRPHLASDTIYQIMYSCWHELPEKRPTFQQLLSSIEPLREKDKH
How it was run: as §1

Flt 4(h) = target: T4, Flt 4(h) (Homo sapiens, UniProt P35916); test: Upstate KinaseProfiler enzyme assay, Flt 4; details: 500 nM compound; read-out: Percent inhibition at 500 nM Flt 4(h)
T4 construct: purchased Upstate Biotechnology (Dundee, UK), KinaseProfiler service
How it was run: as §1

Flt 1(h) = target: T5, Flt 1(h) (Homo sapiens, UniProt P17948); test: Upstate KinaseProfiler enzyme assay, Flt 1; details: 500 nM compound; read-out: Percent inhibition at 500 nM Flt 1(h)
T5 construct: purchased Upstate Biotechnology (Dundee, UK), KinaseProfiler service
How it was run: as §1

KDR(h) = target: T6, KDR(h) (Homo sapiens, UniProt P35968); test: Upstate KinaseProfiler enzyme assay, KDR; details: 500 nM compound; read-out: Percent inhibition at 500 nM KDR(h)
T6 construct: purchased Upstate Biotechnology (Dundee, UK), KinaseProfiler service
How it was run: as §1

T6 sequence (P35968 20-1356): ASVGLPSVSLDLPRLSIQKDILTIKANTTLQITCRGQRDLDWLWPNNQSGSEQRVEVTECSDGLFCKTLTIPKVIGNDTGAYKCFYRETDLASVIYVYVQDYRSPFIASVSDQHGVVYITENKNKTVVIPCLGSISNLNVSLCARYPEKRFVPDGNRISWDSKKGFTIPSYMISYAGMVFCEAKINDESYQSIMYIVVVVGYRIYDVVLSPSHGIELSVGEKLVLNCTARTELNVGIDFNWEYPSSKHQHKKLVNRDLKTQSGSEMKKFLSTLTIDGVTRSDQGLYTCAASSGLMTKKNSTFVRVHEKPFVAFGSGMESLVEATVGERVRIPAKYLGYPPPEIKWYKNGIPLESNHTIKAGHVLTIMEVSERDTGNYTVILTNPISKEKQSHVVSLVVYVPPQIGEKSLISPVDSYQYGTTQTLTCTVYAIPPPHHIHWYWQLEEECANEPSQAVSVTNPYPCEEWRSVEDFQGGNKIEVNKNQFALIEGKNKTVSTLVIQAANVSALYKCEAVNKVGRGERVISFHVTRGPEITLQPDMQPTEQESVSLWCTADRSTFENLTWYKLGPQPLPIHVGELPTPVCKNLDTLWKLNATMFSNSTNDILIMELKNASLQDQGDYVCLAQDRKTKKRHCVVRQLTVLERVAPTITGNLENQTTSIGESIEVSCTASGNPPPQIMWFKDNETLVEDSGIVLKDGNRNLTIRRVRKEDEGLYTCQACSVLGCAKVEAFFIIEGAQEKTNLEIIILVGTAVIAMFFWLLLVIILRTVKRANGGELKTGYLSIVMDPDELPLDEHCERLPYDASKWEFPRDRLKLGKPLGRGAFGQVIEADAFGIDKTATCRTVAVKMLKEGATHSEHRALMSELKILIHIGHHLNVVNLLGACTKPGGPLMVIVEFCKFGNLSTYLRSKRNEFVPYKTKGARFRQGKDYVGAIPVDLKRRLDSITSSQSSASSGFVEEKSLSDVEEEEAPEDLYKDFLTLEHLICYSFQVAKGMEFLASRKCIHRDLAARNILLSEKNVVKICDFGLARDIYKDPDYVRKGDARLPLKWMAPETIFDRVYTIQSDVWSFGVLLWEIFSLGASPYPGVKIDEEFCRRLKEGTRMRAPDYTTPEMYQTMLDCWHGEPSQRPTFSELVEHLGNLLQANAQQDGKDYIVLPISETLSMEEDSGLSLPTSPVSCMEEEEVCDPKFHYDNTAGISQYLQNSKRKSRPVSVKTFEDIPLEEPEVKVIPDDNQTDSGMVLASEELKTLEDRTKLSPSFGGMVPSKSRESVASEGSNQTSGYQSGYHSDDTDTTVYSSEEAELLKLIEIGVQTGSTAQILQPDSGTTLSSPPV
T2 sequence (Q06187 whole entry): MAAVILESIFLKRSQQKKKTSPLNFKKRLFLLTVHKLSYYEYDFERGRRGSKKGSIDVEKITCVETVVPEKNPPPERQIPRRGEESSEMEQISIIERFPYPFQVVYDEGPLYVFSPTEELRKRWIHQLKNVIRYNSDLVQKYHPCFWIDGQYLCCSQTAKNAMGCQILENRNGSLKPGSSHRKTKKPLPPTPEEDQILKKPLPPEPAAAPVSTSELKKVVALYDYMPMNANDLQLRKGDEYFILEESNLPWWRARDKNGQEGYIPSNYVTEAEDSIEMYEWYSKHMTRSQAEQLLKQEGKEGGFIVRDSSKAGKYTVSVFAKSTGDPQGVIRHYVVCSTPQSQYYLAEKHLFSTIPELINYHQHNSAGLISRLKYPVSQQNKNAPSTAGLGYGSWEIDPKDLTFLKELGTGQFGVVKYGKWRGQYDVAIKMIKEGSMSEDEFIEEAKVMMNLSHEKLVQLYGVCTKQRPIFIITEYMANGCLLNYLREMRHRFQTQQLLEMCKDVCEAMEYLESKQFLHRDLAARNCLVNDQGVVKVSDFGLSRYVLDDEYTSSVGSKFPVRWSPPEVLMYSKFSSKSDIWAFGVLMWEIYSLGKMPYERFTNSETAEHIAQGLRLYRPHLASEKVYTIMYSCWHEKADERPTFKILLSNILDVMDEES
T4 sequence (P35916 25-1363): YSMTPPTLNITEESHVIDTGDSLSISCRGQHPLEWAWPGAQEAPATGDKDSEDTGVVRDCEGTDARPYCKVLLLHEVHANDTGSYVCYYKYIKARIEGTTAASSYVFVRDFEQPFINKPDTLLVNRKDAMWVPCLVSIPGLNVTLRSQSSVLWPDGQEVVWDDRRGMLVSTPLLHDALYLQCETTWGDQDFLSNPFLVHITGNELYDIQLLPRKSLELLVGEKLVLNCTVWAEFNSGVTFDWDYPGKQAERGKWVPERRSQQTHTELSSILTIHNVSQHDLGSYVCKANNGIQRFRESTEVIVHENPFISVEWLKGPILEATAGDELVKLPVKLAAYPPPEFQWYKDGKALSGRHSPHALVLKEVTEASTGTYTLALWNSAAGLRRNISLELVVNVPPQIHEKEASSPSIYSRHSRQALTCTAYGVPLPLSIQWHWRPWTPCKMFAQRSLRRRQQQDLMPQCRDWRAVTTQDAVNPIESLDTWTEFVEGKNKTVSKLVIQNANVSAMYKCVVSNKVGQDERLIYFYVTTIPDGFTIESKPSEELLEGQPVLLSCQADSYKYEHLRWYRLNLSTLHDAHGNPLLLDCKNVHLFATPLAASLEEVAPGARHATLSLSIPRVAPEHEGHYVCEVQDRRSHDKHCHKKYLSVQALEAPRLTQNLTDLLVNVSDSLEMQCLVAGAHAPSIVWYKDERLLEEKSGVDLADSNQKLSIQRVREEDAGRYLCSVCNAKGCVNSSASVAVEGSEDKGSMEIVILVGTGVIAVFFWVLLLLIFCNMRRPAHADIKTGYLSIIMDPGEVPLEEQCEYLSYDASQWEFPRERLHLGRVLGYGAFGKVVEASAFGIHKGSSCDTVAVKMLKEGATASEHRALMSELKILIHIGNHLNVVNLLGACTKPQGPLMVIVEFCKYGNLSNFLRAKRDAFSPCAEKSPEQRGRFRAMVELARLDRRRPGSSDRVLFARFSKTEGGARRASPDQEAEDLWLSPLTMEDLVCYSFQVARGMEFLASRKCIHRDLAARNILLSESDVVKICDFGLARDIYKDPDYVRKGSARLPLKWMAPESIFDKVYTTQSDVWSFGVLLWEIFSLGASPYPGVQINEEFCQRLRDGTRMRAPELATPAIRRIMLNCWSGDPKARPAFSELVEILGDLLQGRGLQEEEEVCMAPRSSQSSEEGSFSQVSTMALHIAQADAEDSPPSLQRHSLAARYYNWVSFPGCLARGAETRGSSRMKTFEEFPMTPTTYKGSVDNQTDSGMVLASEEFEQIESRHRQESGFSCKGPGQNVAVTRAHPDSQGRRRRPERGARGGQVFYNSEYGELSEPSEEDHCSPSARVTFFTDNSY
T5 sequence (P17948 27-1338): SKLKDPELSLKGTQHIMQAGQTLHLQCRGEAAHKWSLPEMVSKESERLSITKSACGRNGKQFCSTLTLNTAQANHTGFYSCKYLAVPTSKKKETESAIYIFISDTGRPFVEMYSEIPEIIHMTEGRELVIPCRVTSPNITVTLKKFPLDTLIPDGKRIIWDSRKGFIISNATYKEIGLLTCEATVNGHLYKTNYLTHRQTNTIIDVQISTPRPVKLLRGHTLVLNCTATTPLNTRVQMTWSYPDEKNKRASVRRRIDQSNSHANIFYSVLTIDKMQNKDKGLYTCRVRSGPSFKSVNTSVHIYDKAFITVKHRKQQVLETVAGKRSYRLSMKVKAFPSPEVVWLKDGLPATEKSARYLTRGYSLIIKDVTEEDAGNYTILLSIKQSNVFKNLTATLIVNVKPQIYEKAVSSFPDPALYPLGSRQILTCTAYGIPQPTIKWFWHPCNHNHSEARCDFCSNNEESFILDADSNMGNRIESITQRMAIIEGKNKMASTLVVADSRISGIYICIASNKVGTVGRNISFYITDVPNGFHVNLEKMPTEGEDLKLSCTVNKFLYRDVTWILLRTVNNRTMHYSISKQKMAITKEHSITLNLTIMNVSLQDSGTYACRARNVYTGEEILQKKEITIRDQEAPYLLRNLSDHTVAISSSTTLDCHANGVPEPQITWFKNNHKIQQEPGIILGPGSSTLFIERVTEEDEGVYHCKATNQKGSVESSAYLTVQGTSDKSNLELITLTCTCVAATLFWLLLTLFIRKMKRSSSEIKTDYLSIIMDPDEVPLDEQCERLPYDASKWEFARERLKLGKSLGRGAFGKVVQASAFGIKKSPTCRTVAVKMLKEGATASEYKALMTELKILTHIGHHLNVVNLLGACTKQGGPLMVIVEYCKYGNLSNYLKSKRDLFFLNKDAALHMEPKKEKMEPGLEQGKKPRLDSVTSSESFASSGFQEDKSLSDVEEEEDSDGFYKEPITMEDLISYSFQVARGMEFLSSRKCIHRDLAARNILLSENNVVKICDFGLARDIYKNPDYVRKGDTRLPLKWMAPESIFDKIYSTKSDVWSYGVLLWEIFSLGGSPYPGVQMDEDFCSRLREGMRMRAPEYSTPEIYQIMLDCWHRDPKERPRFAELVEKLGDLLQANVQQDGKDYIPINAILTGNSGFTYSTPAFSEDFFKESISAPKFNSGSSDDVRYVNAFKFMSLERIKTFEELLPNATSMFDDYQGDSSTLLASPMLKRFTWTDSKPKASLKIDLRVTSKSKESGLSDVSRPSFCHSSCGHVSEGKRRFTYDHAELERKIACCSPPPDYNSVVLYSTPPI

COc1ccc(Nc2nccc(Sc3ccc(NC(=O)CC#N)cc3)n2)cc1OC [Compound 101, 2-cyano-N-(4-(2-(3,4-dimethoxyphenylao)pyrimidin-4-ylthio)phenyl)acetamide]
IC50 (human CSF1-R (FMS)): < 0.1 µM

C=CC(=O)Nc1ccc(Sc2nc(Nc3ccc(N4CCOCC4)cc3)ncc2C)cc1 [Compound 124, N-(4-(5-methyl-2-(4-morpholinophenylao)pyrimidin-4-ylthio)phenyl)acrylamide]
IC50 (human CSF1-R (FMS)): < 0.5 µM | inhibition at 0.5 µM (BTK(h)): 100% | inhibition at 0.5 µM (Bmx(h)): 100% | inhibition at 0.5 µM (Flt 4(h)): 100% | inhibition at 0.5 µM (Flt 1(h)): 100% | inhibition at 0.5 µM (KDR(h)): 100%
